PubChem BioAssay (NCI)
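In this assay, cells in 96-well plates receive the compound at five concentrations for 48 hours. Endpoints are linearly interpolated between the surrounding concentrations. GI50: concentration for 50% inhibition of growth. TGI is the concentration that stops growth completely.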

Tests used:
Assay in all cases: inhibition of tumour cell growth, NCI panel, 48 h
[1] = tested on: BT-549 breast
[2] = tested on: M14 melanoma
[3] = tested on: SNB-19 CNS
[4] = tested on: OVCAR-3 ovarian
[5] = tested on: OVCAR-4 ovarian
[6] = tested on: TK-10 renal
[7] = tested on: DU-145 prostate
[8] = tested on: SF-295 CNS
[9] = tested on: UACC-257 melanoma
[10] = tested on: MALME-3M melanoma

For COc1cccc2c1C(=O)c1c(O)c3c(c(O)c1C2=O)C[C@@](O)(/C(C)=N/NC(=O)c1cccc([N+](=O)[O-])c1)C[C@@H]3OC1CC(N)C(O)C(C)O1 (stereo partly specified), the GI50 [1] was 0.714 µM, the TGI [1] was 4.43 µM and the GI50 [2] was 0.324 µM. For the same compound, the TGI [2] was 1.51 µM, the GI50 [3] was 0.291 µM and the TGI [3] was 12 µM. For the same compound, the GI50 [4] was 0.396 µM, the TGI [4] was 5.26 µM and the GI50 [5] was 0.65 µM. It also gave a TGI [5] of 11.3 µM, a GI50 [6] of 0.896 µM and a TGI [6] of 10.2 µM. The GI50 [7] was 0.272 µM, the TGI [7] was 1.81 µM and the GI50 [8] was 0.187 µM. For the same compound, the TGI [8] was 0.997 µM, the GI50 [9] was 0.757 µM and the TGI [9] was 3.43 µM.

For CCOc1ccc2c(c1)[n+]([O-])c(C(N)=O)c(N)[n+]2[O-], the TGI [2] was > 100 µM, the TGI [3] was > 100 µM and the TGI [4] was > 100 µM. For the same compound, the TGI [10] was > 100 µM, the TGI [5] was > 100 µM and the TGI [8] was > 100 µM. For the same compound, the TGI [9] was > 100 µM.

With COC(=O)C1=C(C(=O)OC)C23CC4CCC2(C(=O)C1O3)C4(C)C (stereo unspecified) the TGI [2] was > 100 µM, the TGI [3] was > 100 µM and the TGI [4] was > 100 µM. For the same compound, the TGI [10] was > 100 µM, the TGI [5] was > 100 µM and the TGI [6] was > 100 µM. The TGI [7] was > 100 µM, the TGI [8] was > 100 µM and the TGI [9] was > 100 µM.

For CCC(=O)N1C(=S)SC[C@H]1C(=O)OC, the TGI [2] was > 100 µM, the TGI [3] was > 100 µM and the TGI [4] was > 100 µM. For the same compound, the TGI [10] was > 100 µM, the TGI [5] was > 100 µM and the TGI [6] was > 100 µM. The TGI [8] was > 100 µM and the TGI [9] was > 100 µM.

In the case of Cc1cc[c]([Sb]2[O]C(CO)C(C(O)C(O)C(=O)O)[O]2)cc1 (stereo unspecified), the GI50 [1] is reported as > 100 µM, the TGI [1] is reported as > 100 µM and the GI50 [2] is reported as 90 µM. For the same compound, the TGI [2] was > 100 µM, the GI50 [3] was 60.6 µM and the TGI [3] was > 100 µM. The GI50 [4] was > 100 µM, the TGI [4] was > 100 µM and the GI50 [10] was > 100 µM. The TGI [10] was > 100 µM, the GI50 [5] was > 100 µM and the TGI [5] was > 100 µM. The TGI [6] was 0.58 µM, the GI50 [7] was 38.5 µM and the TGI [7] was > 100 µM. For the same compound, the GI50 [8] was 61.1 µM and the TGI [8] was > 100 µM.

In the case of O=NN(CC1(O)OCC(O)C(O)C1O)C(Cc1c[nH]c2ccccc12)C(=O)O (stereo unspecified), the TGI [2] is reported as > 100 µM, the TGI [4] is reported as > 100 µM and the TGI [10] is reported as > 100 µM. For the same compound, the TGI [6] was > 100 µM and the TGI [9] was > 100 µM.

In the case of COc1ccc(C(O)C(c2ccc(OCc3ccccc3)cc2)c2ccc(OCc3ccccc3)cc2)cc1 (stereo unspecified), the TGI [2] is reported as > 100 µM, the TGI [3] is reported as > 100 µM and the TGI [4] is reported as > 100 µM. The TGI [10] was > 100 µM, the TGI [5] was > 100 µM and the TGI [6] was > 100 µM. The TGI [8] was > 100 µM.

For O=C1/C(=C/c2cc(O)c(O)c(O)c2)Oc2cc(O)cc(OC3OC(CO)C(O)C(O)C3O)c21 (stereo unspecified), the TGI [2] was 50.4 µM, the TGI [3] was > 100 µM and the TGI [4] was 31.4 µM. For the same compound, the TGI [5] was 6.49 µM, the TGI [6] was > 100 µM and the TGI [8] was 34.3 µM.

For CSC(=Nc1ccc([N+](=O)[O-])cc1C#N)NC(=O)c1ccccc1, the TGI [2] was > 100 µM, the TGI [3] was > 100 µM and the TGI [4] was > 100 µM. The TGI [10] was > 100 µM, the TGI [5] was > 100 µM and the TGI [6] was > 100 µM. The TGI [8] was > 100 µM and the TGI [9] was > 100 µM.

With C/C(=C1\C(=O)Nc2ccccc21)c1cccc(/C(C)=C2/C(=O)Nc3ccccc32)n1 the GI50 [1] was 5.43 µM, the TGI [1] was 36.5 µM and the GI50 [2] was 6.84 µM. The TGI [2] was > 100 µM, the GI50 [3] was 23.1 µM and the TGI [3] was > 100 µM. The GI50 [4] was 4.52 µM, the TGI [4] was 28.2 µM and the GI50 [5] was 43 µM. For the same compound, the TGI [5] was > 100 µM, the GI50 [7] was 2.93 µM and the TGI [7] was > 100 µM. It also gave a GI50 [8] of 18.5 µM, a TGI [8] of 85.4 µM and a GI50 [9] of 9.43 µM. It also gave a TGI [9] of 86 µM.
